Data on 8 compounds can be found in patent US8288389B2, “Piperazine derivative having affinity for the histamine H3 receptor” (Glaxo Group Limited, priority 2007, dated 2012).

Where a name gives a salt, the structure may show the parent alone.

Data set [1] in a line: Preliminary HCl-salt-formation and crystallisation experiments (relative stability of crystal forms). It is filed as physicochemical. The conditions noted are these: compared with crystalline Form 1. An excerpt:
Crystalline Form 1 (or a predominance of crystalline Form 1) is often formed initially depending on the conditions, but, depending on the conditions (such as the type of solvent and the solubility of crystalline Form 1 in it, and/or the temperature and/or temperature time course, and/or the contact time of the crystalline Form 1 with the solvent), the crystalline Form 1 can then often convert to crystalline Form 2 to a greater or lesser extent when in contact with a suitable solvent i.e. a solvent suitable for converting crystalline Form 1 to crystalline Form 2.

For data set [2], the system named is rodent models. The note with it: five choice task, object recognition, elevated plus maze, acquisition of novel task, passive avoidance; cited from earlier work.
Data set [3] in a line: Plasma clearance in the pig-PET study. The conditions noted are these: 50 micrograms/kg i.v. It is filed as in vivo, Yorkshire-Landrace pig.
In data set [4] the target is H3 receptor (Sus scrofa, UniProt A0A287B9V8). Kind of data set: Pig-PET study with [11C]GSK189254: pig brain H3 receptor occupancy over time and kon-koff limited model. The conditions noted are these: 50 micrograms/kg i.v.; for koff: iv.
The subject of data set [5] is male Sprague Dawley rats. Nature of the data set: Toxicity Study 1: 7-day oral repeat-dose study in male Sprague Dawley rats. Format: in vivo, rat. The note with it: for tolerability: male rats. How it is done: Three male rats were added at each non-zero dose level for toxicokinetic evaluation. All doses and concentrations, including analyte concentration in plasma, are expressed in terms of the parent “free base” compound.
The following endpoints/parameters were evaluated for toxicology animals: clinical observations, body weights, food consumption measurements, selected haematology and selected clinical chemistry results, liver weights, selected macroscopic and microscopic observations, and selected hepatic gene expression analysis. Toxicokinetic evaluation (serial profiling) was performed on samples collected from satellite animals on Days 1 and 7. For male rats dosed at 30 or 100 mg/kg/day, histopathology observations carried out were on kidneys, mesentery and mandibular lymph node only. For male rats dosed at 0 mg/kg/day (control) and 300 mg/kg/day, histopathology observations carried out were on adrenals, brain, heart, kidneys, liver, lung, mandibular lymph node, mesentery, stomach, testes, and thymus (except that mandibular lymph node observations were for 0 mg/kg/day dosed rats only).

Data set [6] has as its system Sprague Dawley rats. Nature of the data set: Toxicity Study 2: 7-day oral dose range-finding study in Sprague Dawley rats. Format: in vivo, rat. As for the experimental part:
Three male rats and three female rats were added at 600 mg/kg/day and 3 female rats were added at 300 mg/kg/day for toxicokinetic evaluation.
The following endpoints/parameters were evaluated for toxicology animals: clinical observations, body weights, food consumption, selected haematology, selected clinical chemistry, liver weights, and selected macroscopic and microscopic observations. Toxicokinetic evaluation was performed on samples collected on Day 1 (300 and 600 mg/kg/day dosing) and Day 7 (300 mg/kg/day dosing only).

Data set [7] concerns the target T1, histamine H3 receptor (Rattus norvegicus, UniProt Q9QYN8).
T1 construct: from tissue; host or cells: rat cerebral cortex, crude homogenate
The note with it: following oral administration to the rat; cited from earlier work.

The test system of data set [8] is rats. The note with it: certain oral doses; passive avoidance, water maze, object recognition, attentional set shift; cited from earlier work.
Where [9] appears, read: average model: derived from average plasma data and average occupancy.

A word on the koff: it is a measure of how fast the partners let go of each other.

H3 receptor, sequence (A0A287B9V8 1-448): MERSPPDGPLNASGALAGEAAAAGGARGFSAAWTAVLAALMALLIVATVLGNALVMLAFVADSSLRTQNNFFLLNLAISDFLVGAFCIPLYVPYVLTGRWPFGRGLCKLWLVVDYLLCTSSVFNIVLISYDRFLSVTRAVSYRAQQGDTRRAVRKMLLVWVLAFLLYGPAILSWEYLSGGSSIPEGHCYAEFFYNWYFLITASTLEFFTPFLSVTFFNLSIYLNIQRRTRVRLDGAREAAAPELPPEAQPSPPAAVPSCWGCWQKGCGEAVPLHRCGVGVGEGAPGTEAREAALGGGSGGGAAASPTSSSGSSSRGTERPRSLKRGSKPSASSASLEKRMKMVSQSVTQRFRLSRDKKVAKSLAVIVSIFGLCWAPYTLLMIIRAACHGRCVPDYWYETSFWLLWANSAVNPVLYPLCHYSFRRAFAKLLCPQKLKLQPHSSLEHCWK
T1 sequence (Q9QYN8 whole entry): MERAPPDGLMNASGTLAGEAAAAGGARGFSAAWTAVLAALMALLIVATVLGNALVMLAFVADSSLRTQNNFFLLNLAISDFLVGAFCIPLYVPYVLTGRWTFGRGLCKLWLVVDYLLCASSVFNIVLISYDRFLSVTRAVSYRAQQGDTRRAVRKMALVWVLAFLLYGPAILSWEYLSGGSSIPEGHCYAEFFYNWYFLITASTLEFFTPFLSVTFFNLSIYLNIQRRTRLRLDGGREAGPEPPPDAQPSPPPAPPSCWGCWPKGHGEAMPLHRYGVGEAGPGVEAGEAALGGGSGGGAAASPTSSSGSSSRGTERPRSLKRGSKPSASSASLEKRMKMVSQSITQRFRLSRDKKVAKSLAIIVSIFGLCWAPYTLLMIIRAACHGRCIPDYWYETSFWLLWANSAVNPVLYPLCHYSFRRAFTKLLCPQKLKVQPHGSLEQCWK

Consider `CC(C)N1CCN(C(=O)c2ccc(OC3CCOCC3)cc2)CC1` [Example 3], for which the “thermodynamic stability of the crystal form” value in data set [1] was “more thermodynamically stable than crystalline Form 1”.
In the case of `CC(C)(C)CCC#C[C@@H]1C[C@H]1c1c[nH]cn1` [GT-2331], in data set [2], the “effect in rodent cognition models” value is recorded as “cognitive enhancing properties”.
With `O=C(c1ccc(OCCCc2cnc[nH]2)cc1)C1CC1` [ciproxifan], the “effect in rodent cognition models” value in data set [2] is listed as “cognitive enhancing properties”.
`CC(C)N1CCCN(C(=O)c2ccc(OC3CCOCC3)cc2)CC1` [salt B, reference compound] returned a Plasma clearance in data set [3] (average model: derived from average plasma data) of 2.9 L/h. In addition, in data set [4] (setting [9]), the “Kd (koff/kon)” value came to 1.80 ng/mL.
As for `S=C(NC1CCCCC1)N1CCC(c2cnc[nH]2)CC1` [thioperamide], the “effect in rodent cognition models” value in data set [2] is “cognitive enhancing properties”.
Turning to `CC(C)N1CCN(C(=O)c2ccc(OC3CCOCC3)cc2)CC1.Cl` [Example E1], the tolerability entry is recorded as “moderately well tolerated” in data set [5] (300 mg/kg/day oral for 7 days (measured as the free base)); “well tolerated” in data set [5] (30 or 100 mg/kg/day oral for 7 days (measured as the free base)); “moderately well tolerated” in data set [6] (female rats, 300 mg/kg/day oral for 7 days (measured as the free base)). Besides, the food consumption entry in data set [5] (rat, in vivo, po, 300 mg/kg/day) was “ca. 0.80 ×pretreatment”. Besides, the “tolerability (preliminary conclusion from Toxicity Studies 1 and 2)” value in data set [6] (male and female rats, 7 days oral repeat dosing at doses of up to 300 mg/kg/day) is recorded as “well tolerated or moderately well tolerated”. This compound came in with a Plasma clearance in data set [3] (pig 1 (individual study)) of 2.9 L/h. For the same compound, the koff in data set [4] (PIG1, pig, pig 1 (individual study), estimated model parameter) is 6.33e-05 s⁻¹; in data set [4] (pig, average model: derived from average plasma data and average occupancy) it was 0.000152 s⁻¹; in data set [4] (pig, mean of the individually estimated parameters, n=3 pigs) it was 0.000243 s⁻¹; in data set [4] (pig, pig 2 (individual study), estimated model parameter) it was 0.00019 s⁻¹; in data set [4] (pig, pig 3 (individual study), estimated model parameter), 0.000477 s⁻¹. The “Kd (koff/kon)” value in data set [4] (setting [9]) is 3.37 ng/mL; in data set [4] (mean of the individually estimated parameters, n=3 pigs), 3.35 ng/mL. The “reduction in pig brain H3 receptor occupancy over time, as compared to salt B” value in data set [4] (n=3 pigs, preliminary measurements) was “generally faster reduction in pig brain H3 receptor occupancy”.
Regarding `CNC(=O)c1ccc(Oc2ccc3c(c2)CCN(C2CCC2)CC3)nc1` [GSK189254], the “[3]R-α-methylhistamine ex vivo binding in the rat cortex” value in data set [7] is given as “inhibited”. Moreover, in data set [8], the “performance of rats in cognition paradigms” value is on record as “improved performance”.
`NC(=NCc1ccc(Cl)cc1)SCCCc1cnc[nH]1` [clobenpropit]: the “effect in rodent cognition models” value in data set [2] is reported as “cognitive enhancing properties”.
